melting point [°C]	Structure (SMILES)
114 to 116	COc1ccc(CONS(C)(=O)=O)cc1
215 to 216	CN(C)CCCn1c(=O)c2c(N)c3c(=O)c4ccccc4c(=O)c3c(N)c2c1=O
171 to 173	C=C(Oc1cc(-n2c(=O)cc(C(F)(F)F)[nH]c2=O)c(F)cc1Cl)C(=O)OC
142 to 145	Cn1ncnc1COc1nc2c(cc1-c1ccc(F)cc1)nnn2-c1ccccc1F
142 to 144	O=C(NCCc1ccc(OCc2ccccc2)c(OCc2ccccc2)c1CCc1cccc(OCc2ccccc2)c1)C(F)(F)F
52 to 54	CCCC(=O)OC(C)OC(=O)Nc1ccc(Cl)cc1 (configuration not stated)
100 to 102	CCCCCCC(O)CCCCCCCCCCC(=O)NCCCC (configuration not stated)
62 to 64	Cc1nc(CN(C(=O)CCl)c2c(C)cccc2C)cs1
100 to 104	Nc1ncccc1OCc1cc2c(cc1Cl)OCO2
261 to 263	CCCc1nc(C(=O)O)c(C(=O)O)[nH]1
65 to 66.5	CCOC(=O)c1nsc(-c2ccc(C)cc2)n1
170 to 172	CCOc1nc(NCc2ccco2)nc(Nc2ccc3[nH]c(-c4cccs4)nc3c2)n1
> 250	O=C1N(CC2CCCO2)c2ccccc2C12COc1c[nH]c(=O)cc12 (configuration not stated)
205 to 206	COc1ccc(-c2cc(=O)[nH]nc2-c2ccc(OC)c(F)c2)cc1F
53 to 57	COc1cc(C=CC(=O)OC2CC3CC(OC(=O)C=Cc4cc(OC)c(OC)c(OC)c4)C(C2)N3C)cc(OC)c1OC (configuration not stated)
147 to 148	CC#CC=NNC(=O)c1cc(OC)cc(Oc2cccc(C(F)(F)F)c2)n1
102 to 103	OCc1onc(-c2ccc(Cl)o2)c1-c1ccccc1
74	CCc1ncnc2ccc(CCc3cc(OC)ccc3OC)cc12
166 to 168	CC1CCCN1c1nc(C#N)nc(Cl)c1/C(Br)=C(\Br)[Si](C)(C)C (configuration not stated)
242 to 244	Clc1ccc2c(c1)C(c1ccccc1)Nc1nncn1-2 (configuration not stated)
187 to 189	O=S1(=O)NCN(C2CC2)c2ccc(O)cc21
98 to 100	CCOC(=O)c1csc(-c2ccc3cc(C(=O)OCc4ccccc4)c(C45CC6CC(CC(C6)C4)C5)cc3c2)c1
119 to 120	C[C@@H](SCCCO)[C@](O)(Cn1cncn1)c1ccc(F)cc1F (relative stereo)

melting point [°C]	Structure (SMILES)
167 to 168	O=C(O)[C@H]1CC[C@H](N2CCC(Oc3ccc(Cl)c(Cl)c3)CC2)CC1
124	NC(=O)c1ccc(F)c2c1OCC(N(CCCc1c[nH]c3c(F)cc(F)cc13)CC1CC1)C2 (configuration not stated)
173 to 174	CCN(C)c1cc(C)nc(Oc2c(C)cc(C)cc2C)c1C
100 to 102	CCCC(CC)c1nc(C)nc2c1c(C)c(C)n2-c1c(C)cc(C)cc1C (configuration not stated)
118 to 120	CCOC(=O)c1ccc(-c2cccc(OCc3ccc(COC(=O)c4ccccc4)c(COC(=O)c4ccccc4)c3)c2)nc1
213 to 214	Clc1ccc(-c2nc(Cc3nnn[nH]3)c(-c3ccccc3)s2)cc1
215 to 220	COc1cccc2sc(NN)nc12
157 to 159	CN(C)CC#Cc1cc(CC2CCOCC2)cc2c(=O)c(C(=O)NCc3ccc(Cl)cc3)cn(C)c12
179 to 180	CSC(=S)N1C(CO)Cc2c([nH]c3ccccc23)C1CO (configuration not stated)
95 to 97	CC(C)(C)NCC(O)COc1cccc2[nH]cc(Cl)c12 (configuration not stated)
260 to 262	Cc1c(N2CC(O)C2)c(F)cc2c(=O)c(C(=O)O)cn(C3CC3)c12
177 to 178	COC(=O)C(=CN(C)C)N(C)c1nc(-c2ccc(Cl)cc2)cs1
96 to 98	CCNC(=O)c1cc(Br)sc1[Si](C)(C)C
82 to 94	CCOC(=O)c1c(C)nc(-c2ccccc2)nc1-c1ccc(F)cc1
162 to 164	CC1(O)NC(=O)OC12CCN(Cc1ccccc1)CC2 (configuration not stated)
283 to 286	O=c1c2c(n(-c3ccccc3)c3ncccc13)CCC(O)C2 (configuration not stated)
173 to 174	COC(=O)c1cc(COc2nn(-c3ccccc3)cc2C=O)ccc1OCc1nc(-c2ccco2)oc1C
138 to 140	COc1ccc(C(=O)c2c(N)sc3c2CCN(C(=O)c2ccc(Cl)cc2)C3)cc1OC
120 to 130	COc1ccc(N2CCOCC2)c2sc(-c3nc4ccc(N(C)C)nc4[nH]3)nc12
272 to 274	O=C1CCC(N2C(=O)c3cccc(NCC(=O)N4CCC4)c3C2=O)C(=O)N1 (configuration not stated)
120	CC1(C)C=C(c2ccccn2)C2=C(CC=CC(C#N)=C2)C1
99 to 101	CSc1sc(C(=O)N2CCCCCC2)c2c1-c1oncc1C(C)(C)C2
133 to 135	CCOC1OC(COC(C)=O)C(OC2OC(COC(C)=O)C(OC(C)=O)C(OC(C)=O)C2OC(C)=O)C(OC(C)=O)C1OC(C)=O (configuration not stated)

melting point [°C]	Structure (SMILES)
133 to 135	CCC(C)(C)Nc1c(-c2ccc(OC)cc2)c(=O)c1=O
172 to 174	C=CCNc1cc(C)nc2cn[nH]c12
162 to 164	O=C1CCC(C(=O)O)(c2ccc(Cl)cc2)CC1
180 to 182	COC(=O)C1=C(C)NC(CCn2ccnc2)=C(C(=O)OC)C1c1cccc(Cl)c1Cl (configuration not stated)
39 to 39.5	CCCCCCCCCCCCCCCCC(Br)CO (configuration not stated)
189 to 190	COc1ccc(CNn2c(=O)ccc3cnc(SC)nc32)cc1Cl
136	CCCN(CC1CC1)c1nc(C)nc2c1c(C)c(C)n2-c1c(C)cc(C)c2nsnc12
59 to 61	COC(=O)C1Cc2cc(OC)ccc2N1 (racemic)
225 to 227	NC(=O)C1(c2ccccc2)OC(=O)c2ccccc21 (configuration not stated)
72	O=[N+]([O-])c1cccnc1Cc1ccccc1
64 to 65	CCCCC=C1SC(=O)N(CCCCOc2cccn3ccnc23)C1=O
98 to 100	CCCCCCCCCCCCC1=C(Br)C(=O)c2ccccc2C1=O
110 to 112	O=C(NCc1ccccc1)OCC(=O)c1ccccc1
178	O=C(CCCc1ccccc1)N[C@@H](Cc1ccccc1)C(=O)O
248 to 251	COCCn1cc2c(C3C(=O)Nc4ccc(Br)cc43)nc(NCCC3CCNCC3)nc2n1 (configuration not stated)
126 to 127	O=C(NCCOc1ncc(C(F)(F)F)cc1Cl)c1cc([N+](=O)[O-])ccc1Cl
198	O=C(O)C1=CS[C@@H]2/C(=C\c3cc4c(s3)CCN(Cc3ccccc3)C4)C(=O)N12
117 to 119	C#CCOc1nc(C(F)(F)F)cc(=O)n1-c1cc(C(=O)OC(C)C)c(Cl)cc1F
250	NS(=O)(=O)c1nnc(NC(=O)c2ccccc2)s1
191 to 192	Cc1cc(OCc2ccc(-c3ccc(C(F)(F)F)cc3)nn2)ccc1OC(C)(C)C(=O)O
159 to 162	CCOC(=O)C(=CNC1=NN(c2ccc(Cl)cc2)CC1)C(=O)OCC
247 to 250	Cn1c(=O)n(-c2cc(Cl)ccc2O)c2ccc(F)cc21
106 to 108	CCSC1=NCC(O)CN1 (configuration not stated)

Structure (SMILES)	melting point [°C]
C[C@@H]1CNC[C@H](C)N1c1ncccn1	130 to 135
CC(C)(C)c1cc2c(c(C(C)(C)C)c1)OP(OC1CC(C)(C)N(OC3CCCCC3)C(C)(C)C1)Oc1c(cc(C(C)(C)C)cc1C(C)(C)C)C2	140 to 144
Cc1cccc2c(=O)[nH]c(C3CCN(C)CC3)cc12	196 to 198

— a melting point compilation (Tetko et al.; mined from patent text by program, amines drawn as free bases though some values may be those of a salt)
